For test [1], the system named is convulsions caused by supramaximal electric shock (ESM). Description: Supramaximal electric shock (ESM) convulsions in the mouse, oral. The format is in vivo, mouse (male CD1, Charles River). The conditions noted are these: 1.5 h, read-out: ED50 E.S.M. (mouse orally). On the procedure: These effects have been shown in vivo on the mouse and the rat. In the case of the mouse, the product is administered orally, in increasing doses, to batches of 10 male mice CD1 (Charles River) of 20-27 g, 90 minutes before exposure to a supramaximal electric shock (ESM), according to the method described by G. M. Everett and R. K. Richards (J. Pharmacol, Exptl. Therap. 81, 402, 1944).
(§1) The results obtained are collected in the following Table 1, wherein there are also given, for comparison, the results provided by two reference anticonvulsants (valproic acid, phenobarbital).

Test [2] has as its system convulsions caused by strychnine. Description: Strychnine convulsions in the rat, intraperitoneal. The format is in vivo, rat (male CD, Charles River). The conditions noted are these: for ED50: Rattus norvegicus, ip, read-out: ED50 Strychnine (rat ip). On the procedure:
(§2) In the case of the male rat CD (Charles River) of 200-230 g, the convulsions are caused by the subcutaneous injection either of 500 mg/kg of isoniazide (INH) or of 1.5 mg/kg of a strychnine in the form of the sulfate. According to the protocol described by J. L. Costa et al. (Adv. Biochem., Pharmacol., 14, 113, 1975), the product to be tested is administered intraperitoneally 25 minutes after the isoniazide and 5 minutes before the strychnine. The number of animals having shown convulsions is registered during an observation period of 60 minutes after the injection of the isoniazide and 25 minutes after the injection of the strychnine.
as §1

Another test has as its system male mouse CD1. The test can be described thus: Test of the 4 plates (anxiolytic activity). The conditions noted are these: 90 minutes before test, vs control group. The test is classed as in vivo, Charles River). As for the experimental part:
The anxiolytic activity of the product has been shown on the mouse, by use of the method called the test of the 4 plates, described by J. R. Boissier et al. (Europ. J. Pharmacol., 4, 145, 1968).
90 minutes after oral administration of the product, the animal undergoing the test (male mouse CD1 Charles River of 20-27 g) is placed in a box the base or floor of which is formed of four separated metal plates. Each time the animal passes from one plate to another, all the plates are electrified. The animal rapidly associates displacement and an electric shock and stays immovable on one of the plates. The number of crossings effected by the mouse in 2 minutes is thus determined.
The animals are divided into groups of 20 mice, the control group receiving only the vehicle. The results obtained for the treated groups are expressed by a percentage increase of the number of passages with respect to the control group and are collected in Table 2 below.

Test [3] relates to convulsions caused by isoniazide (INH). Description: animal or person. The format is in vivo, rat (male CD, Charles River). Conditions: for ED50: 25 min, rat, ip, 25 minutes after 500 mg/kg sc isoniazide, dose protecting 50% of animals, read-out: ED50 I.N.H. (rat ip). As for the experimental part: as §2

Where two headings read alike, the source gives them in different places.

The ED50 is the midpoint of the dose-response relation. For `Nc1nc2ccc(OC(F)(F)F)cc2s1` [2-Amino-6-trifluoromethoxy-benzothiazole], the ED50 in test [1] (mouse, oral, 90 minutes before supramaximal electric shock, dose protecting 50% of animals) turned out to be 10 mg/kg; in test [2], 8.4 mg/kg; in test [3] it was 2.2 mg/kg. Moreover, the “% increase of the number of passages” value in the test with male mouse CD1 (5 mg/kg orally) amounted to 50%; in the test with male mouse CD1 (10 mg/kg orally) it was 61%; with male mouse CD1 (20 mg/kg orally) it was 100%; in the test on male mouse CD1 (25 mg/kg orally (first line printed 25)) it was 162%; in the test with male mouse CD1 (25 mg/kg orally (second line printed 25)), 215%. The “doses inhibiting INH convulsions, times less than those necessary to inhibit strychnine convulsions” value in test [3] (INH versus strychnine convulsions) came out at 4 times.

In the case of `CCC1(c2ccccc2)C(=O)NC(=O)NC1=O` [Phenobarbital], the 50% effective dose (ED50) is 26 mg/kg in test [1] (Mus musculus, po); 33 mg/kg in test [2]; 16 mg/kg in test [3].

As to `CCCC(CCC)C(=O)O` [Valproic acid], the median effective dose (ED50) in test [1] (Mus musculus, po) came out at 450 mg/kg; in test [3], 180 mg/kg. Further, the “ED50 Strychnine (rat ip), result in words” value in test [2] (rat, inactive at 600 (mg/kg)) is “inactive”.

Source of the values: patent US4370338A (priority 1980, dated 1983).
